The target in one assay is T1, M1 muscarinic receptor (Rattus norvegicus, UniProt P08482).
T1 construct: from tissue; host or cells: rat brain tissue
T1 sequence (P08482 1-460): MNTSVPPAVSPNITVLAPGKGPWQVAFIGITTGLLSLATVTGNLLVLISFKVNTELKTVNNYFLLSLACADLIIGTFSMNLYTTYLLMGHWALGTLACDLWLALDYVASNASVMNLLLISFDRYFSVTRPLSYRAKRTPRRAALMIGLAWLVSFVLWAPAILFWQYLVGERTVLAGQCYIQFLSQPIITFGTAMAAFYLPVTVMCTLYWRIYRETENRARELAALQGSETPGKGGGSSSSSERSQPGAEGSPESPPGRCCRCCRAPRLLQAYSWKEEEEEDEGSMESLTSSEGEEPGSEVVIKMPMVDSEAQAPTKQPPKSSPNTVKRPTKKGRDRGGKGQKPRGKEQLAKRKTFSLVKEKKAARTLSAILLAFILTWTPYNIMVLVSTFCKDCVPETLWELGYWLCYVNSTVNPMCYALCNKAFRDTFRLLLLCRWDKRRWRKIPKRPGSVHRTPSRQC
Description: [3H]-Pirenzepine M1 receptor binding, rat brain tissue. To be noted: for IC50: [3H]pirenzepine, rat brain tissue; for M2/M1: ratio of M2 IC50 to M1 IC50.

For assay [1], the system named is scopolamine-induced hyperactivity (muscarinic M1-mediated effect). Kind of assay: Reduction of scopolamine-induced hyperactivity (locomotor activity chambers). The format is in vivo, rat. As for the experimental part: The motor activity chambers utilize infrared detectors to assess movement in 3 axes. Total activity measures (vertical+horizontal activity) were collected in 15 minute intervals for 1 hour post-injection. Total activity measures were cumulated across all time intervals for statistical analysis.

For another assay, the target named is T2, M2 receptor (Rattus norvegicus, UniProt P10980).
T2 sequence (P10980 1-466): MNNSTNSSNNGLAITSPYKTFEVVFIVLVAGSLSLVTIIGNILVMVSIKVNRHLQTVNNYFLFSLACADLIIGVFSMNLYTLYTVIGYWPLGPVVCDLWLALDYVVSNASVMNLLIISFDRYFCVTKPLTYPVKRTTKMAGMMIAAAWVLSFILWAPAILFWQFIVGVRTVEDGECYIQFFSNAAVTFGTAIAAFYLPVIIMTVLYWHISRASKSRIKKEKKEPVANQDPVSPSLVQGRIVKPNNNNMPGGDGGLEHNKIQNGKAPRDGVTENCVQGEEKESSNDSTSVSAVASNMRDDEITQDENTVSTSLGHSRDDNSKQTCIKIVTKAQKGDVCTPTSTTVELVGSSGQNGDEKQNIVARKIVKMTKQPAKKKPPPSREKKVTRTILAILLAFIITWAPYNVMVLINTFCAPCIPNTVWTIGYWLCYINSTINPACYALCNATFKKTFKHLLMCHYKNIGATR
Description: biochemical. The format is binding. To be noted: read-out: [3H]QNB M2 IC50.

For assay [2], the system named is male Sprague-Dawley (Charles River) rats. Kind of assay: Radial arm maze test, scopolamine impairment. The format is in vivo, rat. The text has this: The compound of Example 1 was also studied in the radial arm maze test where male Sprague-Dawley (Charles River) rats on a 23-hour food deprivation schedule were trained in an eight arm radial maze with all arms baited. Each session consisted of two maze exposures, with a time limit of 500 seconds for each exposure. After four correct choices (first exposure), each animal was removed from the maze for one hour then returned with only the remaining four arms baited (second exposure). Choice errors, consisting of delay errors (re-entry into any of the four arms chosen during the first exposure) and current errors (re-entry into any of the four arms chosen during the second exposure), as well as total errors were recorded. Durations for each exposure were also recorded. Statistical analysis were preformed using a One-Way Anova with Dunnetts T-Test comparisons.
All compounds were solubilized in distilled water.

Another assay relates to memory loss. To be noted: cited from earlier work.
Assay [3] has as its system Alzheimer's patients and healthy elderly patients. To be noted: cited from earlier work.
Where [4] appears, read: Table 3, 1.0 mg/kg i.p. + scopolamine HBr 0.3 mg/kg s.c.
[5] abbreviates: Table 3, 3.0 mg/kg i.p. + scopolamine HBr 0.3 mg/kg s.c.
The mark [6] stands for this setting: Table 3, 10.0 mg/kg i.p. + scopolamine HBr 0.3 mg/kg s.c.
[7] abbreviates: Table 2, physostigmine 0.01 mg/kg i.p., scopolamine-impaired.
The mark [8] stands for this setting: first experiment (Table 2), versus scopolamine.
The mark [9] stands for this setting: first experiment (Table 2), versus vehicle.
Setting [10] is: Table 2, scopolamine HBr 0.3 mg/kg s.c. alone.
The mark [11] stands for this setting: Table 3, scopolamine HBr 0.3 mg/kg s.c. alone.

We go through 13 compounds from patent US4985560A, “Pyridazino(4,5-b)indolizines” (American Home Products Corporation, priority 1990, dated 1991).

Several values for one entry are separate records, joined by “and”; a condition that tells them apart may be missing. Equal entries are not always repeated.

Consider `CCN(CC)CCCNc1nnc(C)c2c1cc1ccccn12` [Example 1, 1-[(3'-Diethylaminopropyl)amino]-4-methylpyridazino[4,5-b]indolizine], for which, on M1 muscarinic receptor, the IC50 stood at 98 nM and the M2/M1 is listed as 42. The “total activity versus vehicle-only controls” value in assay [1] (30 and 54 mg/kg i.p., scopolamine 1.7 mg/kg s.c.) is “did not differ from vehicle-only controls”. Further, in assay [1] (i.p., scopolamine 1.7 mg/kg s.c., rats), the “dose active in reducing scopolamine-induced hyperactivity” value was 30 mg/kg and 54 mg/kg. In addition, the 50% inhibitory concentration (IC50) on M2 receptor amounted to 4.1 µM. Moreover, the “total time compared to scopolamine” value in assay [2] (1.0 mg/kg i.p., Table 3) is “reduction in time impairment compared to scopolamine”. Also, in assay [2] (3.0 mg/kg i.p., Table 3), the “delay time (first exposure) versus vehicle” value is on record as “significantly increased”. Also, in assay [2] (1, 3, 10 mg/kg i.p., Table 3), the “current and total errors, dose trend” value is on record as “definite dose-related decrease in scopolamine impairment”; the “delay errors, dose trend” value is reported as “no dose-related trend”. The “total time versus vehicle” value in assay [2] (3.0 and 10 mg/kg i.p., Table 3) is “significantly increased”. Besides, in assay [2] (setting [4]), the “Mean Errors, Current” value came out at 2.00; the “Mean Errors, Delay” value stood at 1.83; the “Mean Errors, Total” value is reported as 3.67; the “Mean Time, Current” value is 1.83 min. Moreover, in assay [2] (setting [4]), the “Mean Time, Delay” value is 1.03 min and the “Mean Time, Total” value is 2.99 min. Further, in assay [2] (setting [5]), the “Mean Errors, Current” value turned out to be 1.13; the “Mean Errors, Delay” value is recorded as 2.38; the “Mean Errors, Total” value is 3.50; the “Mean Time, Current” value stood at 2.92 min. Further, in assay [2] (setting [5]), the “Mean Time, Delay” value turned out to be 1.95 min and the “Mean Time, Total” value amounted to 4.96 min. Also, in assay [2] (setting [6]), the “Mean Errors, Current” value stood at 0.75; the “Mean Errors, Delay” value is reported as 2.00; the “Mean Errors, Total” value is 2.75; the “Mean Time, Current” value turned out to be 3.32 min. For the same compound, in assay [2] (setting [6]), the “Mean Time, Delay” value came out at 1.63 min and the “Mean Time, Total” value is 5.15 min. Also, the “impairment caused by scopolamine” value in assay [2] (all doses tested (1, 3, 10 mg/kg i.p.), Table 3) is listed as “reduced the impairment caused by scopolamine”. In addition, in assay [2] (all groups, Table 3), the “current time (second exposure) versus vehicle” value is on record as “significantly increased”. Also, the “cognitive impairment due to cholinergic hypofunction” value in assay [2] (overall conclusion) was “can reduce cognitive impairment”.

Regarding `Cc1nnc(NCCN(C)C)c2cc3ccccn3c12` [Example 2], at M1 muscarinic receptor, the IC50 worked out at 660 nM and the M2/M1 is given as 18. Moreover, the IC50 at M2 receptor stood at 12 µM.

On to `Cc1nnc(NCCCN(C)C)c2cc3ccccn3c12` [Example 3, N,N-Dimethyl-N'-(4-methylpyridazino[4,5-b]indolizin-1-yl)-1,3-propanediamine], for which, on M1 muscarinic receptor, the IC50 was 600 nM and the M2/M1 came to 24. For the same compound, the IC50 on M2 receptor was found to be 9.5 µM.

`Cc1nnc(NCCN2CCOCC2)c2cc3ccccn3c12` [Example 4, N-[2-(4-Morpholinyl)ethyl]-4-methylpyridazino[4,5-b]indolizin-1-amine]: on M1 muscarinic receptor, the concentration for half-maximal inhibition (IC50) came out at 2450 nM and the M2/M1 came to 8. On M2 receptor, the IC50 was determined as 19 µM.

With `Cc1nnc(NCCCN2CCOCC2)c2cc3ccccn3c12` [Example 5, N-[3-(4-Morpholinyl)propyl]-4-methylpyridazino[4,5-b]indolizin-1-amine], the IC50 was 270 nM on M1 muscarinic receptor and 12 µM on M2 receptor. The M2/M1 at M1 muscarinic receptor is recorded as 44.

Consider `CCN1CCCC1CNc1nnc(C)c2c1cc1ccccn12` (centres unmarked) [Example 6, N-[(1-Ethyl-2-pyrrolidinyl)methyl]-4-methylpyridazino[4,5-b]-indolizin-1-amine], for which, at M1 muscarinic receptor, the 50% inhibitory concentration (IC50) was 260 nM and the M2/M1 turned out to be 24. The IC50 on M2 receptor was 6.2 µM.

Regarding `Cc1nnc(N2CCN(C)CC2)c2cc3ccccn3c12` [Example 7, 4-Methyl-1-(4'-methylpiperazinyl)pyridazino[4,5-b]indolizine], at M1 muscarinic receptor, the IC50 turned out to be 1000 nM and the M2/M1 worked out at 29. In addition, the IC50 on M2 receptor is 29 µM.

On to `Cc1nnc(NCCCN2CCCCC2)c2cc3ccccn3c12` [Example 8, 4-Methyl-N-[3-(1-piperidinyl)propyl]pyridazino[4,5-b]indolizin-1-amine], for which, on M1 muscarinic receptor, the IC50 came to 110 nM and the M2/M1 is listed as 13. In addition, at M2 receptor, the IC50 amounted to 1.4 µM.

For `Cc1nnc(NCCCN2CCN(C)CC2)c2cc3ccccn3c12` [Example 9, 4-Methyl-N-[4'-methyl(1-piperazinyl)propyl]pyridazino[4,5-b]indolizin-1-amine], at M1 muscarinic receptor, the half-maximal inhibitory concentration (IC50) was 150 nM and the M2/M1 amounted to 19. The IC50 on M2 receptor stood at 2.8 µM.

`Cc1nnc(NCCCCN2CCN(C)CC2)c2cc3ccccn3c12` [Example 10, 4-Methyl-N-[4'-methyl(1-piperazinyl)butyl]pyridazino[4,5-b]indolizin-1-amine]: on M1 muscarinic receptor, the IC50 was determined as 140 nM and the M2/M1 was found to be 25. The IC50 on M2 receptor is 3.5 µM.

Regarding `CNC(=O)Oc1ccc2c(c1)[C@]1(C)CCN(C)[C@@H]1N2C` [Physostigmine, physostigmine], in the assay on memory loss (humans and monkeys), the “reversal of muscarinic antagonist-induced memory deficit, humans and monkeys” value is reported as “can be reversed”. In assay [3] (due to side-effects, short duration of action, narrow active dose range), the clinical efficacy entry was “neither physostigmine nor arecoline have clinical efficacy”. In assay [2] (setting [7]), the “Mean Errors, Current” value amounted to 0.88; the “Mean Errors, Delay” value is given as 1.13; the “Mean Errors, Total” value is on record as 2.00; the “Mean Time, Current” value came to 2.01 min. In assay [2] (setting [7]), the “Mean Time, Delay” value amounted to 1.14 min and the “Mean Time, Total” value came out at 3.25 min. Besides, in assay [2] (setting [8]), the “scopolamine impairment in delay, current and total errors” value is “significant reduction in scopolamine impairment in delay, current and total errors”; the “time compared to scopolamine” value was “significant time reduction compared to scopolamine in both delay time (first exposure) and total time”. Further, in assay [2] (setting [9]), the “delay, current and total errors versus vehicle” value is “did not”.

On to `CN1[C@@H]2C[C@@H](OC(=O)[C@H](CO)c3ccccc3)C[C@H]1[C@@H]1O[C@@H]12` [Scopolamine, scopolamine], for which, in the assay on memory loss (normal humans and animals (cat, rat, monkey)), the memory loss induced result was “Memory loss”. Besides, the total activity measure entry in assay [1] (scopolamine 1.7 mg/kg s.c. alone) is listed as “significant increase”. Also, in assay [2] (setting [10]), the “Mean Errors, Current” value turned out to be 3.63; the “Mean Errors, Total” value worked out at 6.38; the “Mean Time, Current” value was 2.78 min; the “Mean Time, Delay” value came to 2.28 min. In assay [2] (setting [10]), the “Mean Time, Total” value was 5.27 min. Besides, in assay [2] (setting [11]), the “Mean Errors, Current” value was determined as 3.57; the “Mean Errors, Total” value was determined as 5.72; the “Mean Time, Current” value was found to be 2.90 min; the “Mean Time, Delay” value amounted to 2.01 min. In addition, the “Mean Time, Total” value in assay [2] (setting [11]) amounted to 5.14 min. Further, in assay [2] (setting [9]), the “delay, current and total errors versus vehicle” value was “significant increase in delay, current and total errors versus vehicle”; the “time measures versus vehicle” value is “increased all time measures compared to vehicle”. Moreover, the “total errors compared to vehicle” value in assay [2] (second experiment (Table 3)) is recorded as “significantly increased total errors compared to vehicle”. The “time measures compared to vehicle” value in assay [2] (second experiment (Table 3), scopolamine alone) is recorded as “increased all time measures compared to vehicle”.

As for lecithin, the “improvement on cognitive tests” value in assay [3] (Alzheimer's patients and healthy elderly patients) is “No significant improvement”.
